For two molecules, AUC, concentration and Tmax results are on record in ChEMBL document CHEMBL1155148 (Antimicrob Agents Chemother, 2007).

The nature of data set [1]: AUC (0 to 24 hrs) in human at 400 mg, po once daily after 14 days coadministered with rifampin at 600 mg, po once daily. It is filed as ADME, organism-based. Also noted: dose 400 mg, time < 24 hr, route oral. Particulars: plasma.
Data set [2] is described as follows: AUC (0 to 24 hrs) in human at 400 mg, po once daily after 4 days. It is filed as ADME, organism-based. The arrangement: dose 400 mg, time < 24 hr, route oral. Particulars: plasma.
A short description of data set [3]: Plasma concentration in human at 400 mg, po once daily after 14 days coadministered with rifampin at 600 mg, po once daily. It is filed as ADME, organism-based.
The nature of data set [4]: Plasma concentration in human at 400 mg, po once daily after 4 days. Format: ADME, organism-based.
Data set [5] can be described thus: Tmax in human at 400 mg, po once daily after 14 days coadministered with rifampin at 600 mg, po once daily. Format: ADME, organism-based. Particulars: in vivo.
Data set [6] in a line: Tmax in human at 400 mg, po once daily after 4 days. Particulars: in vivo. Format: ADME, organism-based.
Data set [7] can be described thus: AUC (0 to 24 hrs) in human with MDR1 3435 CC genotype at 400 mg, po once daily after 14 days coadministered with rifampin at 600 […], po once daily. The conditions noted are these: plasma. The arrangement: time < 24 hr, route oral. It is filed as ADME, organism-based.
A short description of data set [8]: AUC (0 to 24 hrs) in human with MDR1 3435 CC genotype at 400 mg, po once daily after 4 days. It is filed as ADME, organism-based. Also noted: dose 400 mg, time < 24 hr, route oral. The conditions noted are these: plasma.
Data set [9] is described as follows: AUC (0 to 24 hrs) in human with MDR1 3435 CC or CT genotype at 400 mg, po once daily after 4 days. Also noted: dose 400 mg, time < 24 hr, route oral. Particulars: plasma. Format: ADME, organism-based.
Data set [10] is described as follows: Plasma concentration in human with MDR1 3435 CC genotype at 400 mg, po once daily after 14 days coadministered with rifampin at 600 […], po once daily. It is filed as ADME, organism-based. The arrangement: route oral.
Data set [11] is described as follows: Plasma concentration in human with MDR1 3435 CC or CT genotype at 400 mg, po once daily after 14 days coadministered with rifampin at 600 […], po once daily. Also noted: route oral. It is filed as ADME, organism-based.
A short description of data set [12]: Plasma concentration in human with MDR1 3435 CC genotype at 400 mg, po once daily after 4 days. It is filed as ADME, organism-based.
Data set [13] is described as follows: Plasma concentration in human with MDR1 3435 CC or CT genotype at 400 mg, po once daily after 4 days. Format: ADME, organism-based.
Data set [14] in a line: Tmax in human with MDR1 3435 CC genotype at 400 mg, po once daily after 14 days coadministered with rifampin at 600 […], po once daily. It is filed as ADME, organism-based. The arrangement: route oral. The conditions noted are these: in vivo.
Data set [15] can be described thus: Tmax in human with MDR1 3435 CC or CT genotype at 400 mg, po once daily after 14 days coadministered with rifampin at 600 […], po once daily. Format: ADME, organism-based. The arrangement: route oral. The conditions noted are these: in vivo.
A short description of data set [16]: Tmax in human with MDR1 3435 CC genotype at 400 mg, po once daily after 4 days. It is filed as ADME, organism-based. The conditions noted are these: in vivo.
Data set [17] in a line: Tmax in human with MDR1 3435 CC or CT genotype at 400 mg, po once daily after 4 days. Format: ADME, organism-based. The conditions noted are these: in vivo.
Data set [18] can be described thus: AUC (0 to 24 hrs) in human with MDR1 3435 CT or TT genotype at 400 mg, po once daily after 14 days coadministered with rifampin at 600 mg, po once daily. The conditions noted are these: plasma.
Data set [19] is described as follows: AUC (0 to 24 hrs) in human at 600 mg, po once daily after 14 days coadministered with moxifloxacin at 400 mg, po once daily. Format: ADME, organism-based. Also noted: dose 600 mg, time < 24 hr, route oral. The conditions noted are these: plasma.
Data set [20] is described as follows: Plasma concentration in human at 600 mg, po once daily after 14 days coadministered with moxifloxacin at 400 mg, po once daily. It is filed as ADME, organism-based.

A word on the AUC: it is concentration integrated over time. In general, Tmax refers to the time from dosing to the highest level. As to `COc1c(N2C[C@@H]3CCCN[C@@H]3C2)c(F)cc2c(=O)c(C(=O)O)cn(C3CC3)c12` [MOXIFLOXACIN], the AUC at 24 h came to 29200 ng·h/mL in [1]; 39400 ng·h/mL in [2]; 25500 ng·h/mL in data set [7]; 37200 ng·h/mL in data set [8]; 39700 ng·h/mL in data set [9]; 30300 ng·h/mL in [18]. Further, the concentration at 336 h was determined as 3600 ng/mL in data set [3], 2940 ng/mL in [10] and 3830 ng/mL in data set [11]. The concentration at 96 h in data set [4] amounted to 3800 ng/mL; in data set [12], 3530 ng/mL; in data set [13], 3810 ng/mL. The Tmax in data set [5] came to 1.56 h; in [6], 1.97 h; in [14], 1.98 h; in data set [15] it was 1.05 h; in data set [16] it was 1.47 h; in [17] it was 1.91 h.

In the case of `CO[C@H]1/C=C/O[C@@]2(C)Oc3c(C)c(O)c4c(O)c(c(/C=N/N5CCN(C)CC5)c(O)c4c3C2=O)NC(=O)/C(C)=C\C=C\[C@H](C)[C@H](O)[C@@H](C)[C@@H](O)[C@@H](C)[C@H](OC(C)=O)[C@@H]1C` [RIFAMPIN], in data set [19], the AUC at 24 h was determined as 44000 ng·h/mL. The concentration at 336 h in [20] stood at 9900 ng/mL.
